Assay results as given in PubChem BioAssay (NCI).
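Growth conditions: 96-well plates. Treatment: test compound, 48 hours, 5 concentrations. Analysis: linear interpolation between bracketing concentrations; unreached endpoints set to highest concentration. TGI: concentration producing complete growth inhibition.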

Experiments:
Test in all cases: DTP human tumour cell line panel, 48 h
786-0 renal = tested on: 786-0 renal
A549 NSCLC = tested on: A549 NSCLC
ACHN renal = tested on: ACHN renal
BT-549 breast = tested on: BT-549 breast
CAKI-1 renal = tested on: CAKI-1 renal
CCRF-CEM leukemia = tested on: CCRF-CEM leukemia
COLO 205 colon = tested on: COLO 205 colon
DU-145 prostate = tested on: DU-145 prostate
EKVX NSCLC = tested on: EKVX NSCLC
HCC-2998 colon = tested on: HCC-2998 colon
HCT-116 colon = tested on: HCT-116 colon
HCT-15 colon = tested on: HCT-15 colon
HL-60(TB) leukemia = tested on: HL-60(TB) leukemia
HOP-62 NSCLC = tested on: HOP-62 NSCLC
HOP-92 NSCLC = tested on: HOP-92 NSCLC
HS 578T breast = tested on: HS 578T breast
HT29 colon = tested on: HT29 colon
K-562 leukemia = tested on: K-562 leukemia
KM12 colon = tested on: KM12 colon
LOX IMVI melanoma = tested on: LOX IMVI melanoma
M14 melanoma = tested on: M14 melanoma
MALME-3M melanoma = tested on: MALME-3M melanoma
MCF7 breast = tested on: MCF7 breast
MDA-MB-231 breast = tested on: MDA-MB-231 breast
MDA-MB-435 = tested on: MDA-MB-435
MOLT-4 leukemia = tested on: MOLT-4 leukemia
NCI-H226 lung = tested on: NCI-H226 lung
NCI-H23 lung = tested on: NCI-H23 lung
NCI-H460 lung = tested on: NCI-H460 lung
NCI-H522 lung = tested on: NCI-H522 lung
OVCAR-3 ovarian = tested on: OVCAR-3 ovarian
OVCAR-4 ovarian = tested on: OVCAR-4 ovarian
OVCAR-5 ovarian = tested on: OVCAR-5 ovarian
OVCAR-8 ovarian = tested on: OVCAR-8 ovarian
PC-3 prostate = tested on: PC-3 prostate
RPMI-8226 leukemia = tested on: RPMI-8226 leukemia
RXF 393 renal = tested on: RXF 393 renal
SF-268 CNS = tested on: SF-268 CNS
SF-295 CNS = tested on: SF-295 CNS
SF-539 CNS = tested on: SF-539 CNS
SK-MEL-2 melanoma = tested on: SK-MEL-2 melanoma
SK-MEL-28 melanoma = tested on: SK-MEL-28 melanoma
SK-OV-3 ovarian = tested on: SK-OV-3 ovarian
SN12C renal = tested on: SN12C renal
SNB-19 CNS = tested on: SNB-19 CNS
SNB-75 CNS = tested on: SNB-75 CNS
SR leukemia = tested on: SR leukemia
SW-620 colon = tested on: SW-620 colon
T-47D breast = tested on: T-47D breast
TK-10 renal = tested on: TK-10 renal
U251 CNS = tested on: U251 CNS
UACC-257 melanoma = tested on: UACC-257 melanoma
UACC-62 melanoma = tested on: UACC-62 melanoma
UO-31 renal = tested on: UO-31 renal
A498 renal = tested on: A498 renal
IGROV1 ovarian = tested on: IGROV1 ovarian
NCI/ADR-RES ovarian = tested on: NCI/ADR-RES ovarian
SK-MEL-5 melanoma = tested on: SK-MEL-5 melanoma

Measured: TGI

Nc1sc2c(c1C(=O)c1ccc(Cl)c(Cl)c1)CCCC2
44.1 µM: SK-MEL-2 melanoma
86.4 µM: SNB-75 CNS
65.3 µM: HL-60(TB) leukemia
50.2 µM: NCI-H522 lung
78.1 µM: RPMI-8226 leukemia
49.3 µM: HCC-2998 colon
64.8 µM: MCF7 breast
not listed: A498 renal | IGROV1 ovarian | NCI/ADR-RES ovarian | SK-MEL-5 melanoma
> 100 µM: all other assays above

CN(Cc1cnc2nc(N)nc(N)c2n1)c1ccc(C(=O)NC(CCC(=O)O)C(=O)O)cc1C(F)(F)F (centres undefined)
1.24 µM: SR leukemia
> 89 µM: NCI-H226 lung
0.486 µM: CCRF-CEM leukemia
> 66.7 µM: OVCAR-8 ovarian
not listed: BT-549 breast | SN12C renal | UACC-62 melanoma
> 100 µM: all other assays above
